Like-named read-outs stand apart in the source and are kept apart here. Non-standard residues stand in square brackets, D forms with d. Residues, ends and D or L forms follow the SMILES beside them. *: point of attachment. Phe(2-OMe) = COc1ccccc1C[C@H](N)C(=O)O; AMC = Cc1cc(=O)oc2cc(N*)ccc12; Cbz = O=C(OCc1ccccc1)*
Tests used:
cruzain [1] = molecular target: T1, cruzain (Trypanosoma cruzi, UniProt P25779); test: biochemical; conditions: pH 7.5
Experimental: All enzyme assays were performed at 25° C. Initial rates of the peptidolytic reaction catalyzed by cruzain were measured by monitoring the fluorescence generated by cleavage of the dipeptide-AMC bond. Assays were conducted in 96-well plates (Greiner; flat-bottom, clear black plates) in a total volume of 250 μL, containing either 50 mM MES (pH 7.5), 50 mM TAPSO, 100 mM DEA, 1 mM CHAPS, 1 mM Na2EDTA, 5 mM DTT, and 10% DMSO (v/v) or 50 mM sodium acetate (pH 5.5), 50 mM MES, 100 mM TEA, 1 mM CHAPS, 1 mM Na2EDTA, 5 mM DTT, and 10% DMSO (v/v). Substrates were dissolved in 100% DMSO and were then diluted 10-fold such that when added to reaction mixtures, final DMSO concentration was 10% (v/v). […] Fluorescence was measured on either a SpectraMax M5 (Molecular Devices) or a Synergy HTX (BioTek, Winooski, VT) microplate reader (λex=360 nm, λem=460 nm). Initial rates were determined from continuous kinetic time courses and calculated from the earliest time points, typically at less than 10 min.
(2) Enzyme and compound were preincubated over extended periods of time, and then aliquots were removed and diluted 50-fold to 100-fold into reaction mixtures containing 10 μM Cbz-Phe-Arg-AMC, followed by the assessment of the resulting time courses.
Data for time-dependent inhibition were fitted by several methods.
Values of kobs versus [inhibitor] were then replotted and fitted to eq 4 for which k3 and k4 represent the respective rates of formation and dissolution of the EI* complex as depicted in FIG. 9.
In addition, time-course data were fitted globally by two methods. First, expressions for vs, vi, and kobs were substituted into eq 3 to generate eq 6, which was used to fit time-course data at all concentrations of inhibitors simultaneously. Second, time-course data were fitted using KinTek Explorer as either a single-binding step model with the two kinetic parameters k3/Ki and k4 or a two-step binding mechanism as shown in FIG. 9 from which rate constants k1-k4 are determined (Supporting Information).
Enzyme Assays. The preparation of cruzain and 3CL^pro were described in previous publications.^8, 34 The evaluation of inhibitors was modified from our lab protocol and described briefly as follows.^35 All enzyme assays were conducted in 96-well, clear bottom, black plates at 25° C., and fluorescence emanating from product formation was measured using either a SpectraMax M5 (Molecular Devices) or a Synergy HTX (Biotek) microplate reader, with excitation at λex=360 nm and emission at λem=460 nm. […] Reactions were started with addition of enzyme (typically, to a final concentration of 0.2 nM for cruzain or 40 nM for 3CL^pro), and the time courses were recorded for 0.5-1 h.
Kinetic Data Analysis. All time-course data were fitted to eq. 1, wherein P is the fluorescence generated by formation of AMC or liberated ACC, C is the background constant, vi and vs are respectively initial-state and steady-state reaction rates, t is time, and kobs is the observed rate of conversion of the initial inhibited rate to the final inhibited rate.^46
Overall inhibition constants (Ki* values) were obtained by fitting vs/v0 to eq. 4, wherein vs and v0 are steady-state reaction rates in the presence and absence of inhibitor respectively, [S] and [I] represent the fixed concentration of substrate and variable inhibitor, Km is the Michaelis constant of the substrate.

[2] = system: T. cruzi (Ca-I/72) in C2C12 murine cardiomyoblasts; test: T. cruzi-infected murine cardiomyoblasts (C2C12); format: cell-based, Trypanosoma cruzi; conditions: read-out: EC50 T. cruzi-infected cardiomyoblasts
Experimental: For the evaluation of the antitrypanocidal activity of cruzain inhibitors, we infected a C2C12 mouse cardiomyoblast cell line (ATCC CRL-1772) with T. cruzi strain Ca-I/72 (a gift from James Dvorak, National Institutes of Health) in […] plates. […] The plates were incubated at 37° C. for 48 h, and the wells were fixed with 2% paraformaldehyde in PBS and stained with 5 μg mL-1 4,6-diamidino-2-phenylindole. After at least 30 min of incubation at room temperature in the dark, the plates were read in an automated microscope, ImageXpress Micro XL (Molecular Devices), and the images were analyzed by custom-built software to quantify and assess viability of the parasites, as well as the host cells independently. The compilation of data was used to calculate the antiparasitic activity (EC50) and host cytotoxicity (CC50).
T. cruzi infection was evaluated in C2C12 murine cardiomyoblast cells. 384-microwell plates containing C2C12 murine cardiomyoblast cells were infected with 10^3 and 10^4 cells of T. cruzi (Ca-I/72), to which was added 3-fold serially-dilutions of inhibitor with maximal concentrations of 10 μM, followed by incubation at 37° C. for 2 days. The wells were fixed with 2% PFA in PBS, and stained by 5 μg/ml of DAPI. After >30 min of incubation in a dark environment, the plates were read on an ImageXpress MicroXL microscope (Molecular Devices). The images were analyzed to quantify parasites as well host cells.

[3] = Thiolation of inhibitors with glutathione, LCMS; format: physicochemical; conditions: 1 mM glutathione, 0.5 mM compound, Tris pH 8.0, 10% DMSO, room temperature
Experimental: Samples were analyzed by HPLC-MS (as described above) by injecting 0.01 mL aliquots onto a Luna […] C18(2) 100 Å, 4.6 mm, 50 mm column (Phenomenex) using the HPLC method described in the chemistry section at 0-6 h time points. […] Integration of the chromatographic peaks of the inhibitors and their GSH adducts at each time point was used to determine the rate of GSH adduct formation.

SARS-CoV-2 3CL protease = SARS-CoV-2 3CL protease (Severe acute respiratory syndrome coronavirus 2 (2019-nCoV) (SARS-CoV-2), UniProt P0DTD1); test: biochemical; format: biochemical; conditions: read-out: Ki* 3CLpro
[4] = system: T. b. brucei bloodstream forms; test: Growth of axenic cultures of T. b. brucei bloodstream forms (BSFs); conditions: Trypanosoma brucei, read-out: EC50 T. b. brucei BSF, axenic culture
human cathepsin B = human cathepsin B (Homo sapiens (Human), UniProt P07858); test: Human cathepsin B inhibition, Z-FR-AMC assay; format: biochemical
Experimental: (§1) Recombinant human cathepsins B and L were purchased from Millipore Sigma and used without further treatment. The solid proteins were dissolved into a solution of 50 mM sodium acetate (pH 5.5), 1 mM EDTA, 1 mM CHAPS, 10% (v/v) DMSO, and 5 mM DTT to final concentrations of […] in 20-mL aliquots, and stored at −80° C. until needed. These samples were then diluted into the same buffer to concentrations of −100 nM, and these dilutions were stored at 4° C. and used daily until depletion.
(§2) For assays of cathepsin L and B, inhibitors were evaluated in 0.25-mL reaction mixtures containing a buffer of sodium acetate (pH 5.5), 1 mM CHAPS, 1 mM Na2EDTA, and 5 mM DTT at 25° C. The fluorogenic substrate Cbz-Phe-Arg-7-amino-4-methyl-coumarin (Z-FR-AMC) was dissolved in 100% DMSO, as were all inhibitors, and aliquots of both substrates and inhibitors were added to reaction mixtures to final concentrations of DMSO of 10% (v/v). […] Formation of the fluorescent product AMC was monitored over 30-60-minute time courses for reaction mixtures in 96-well black microplates (Corning Costar®). Rates of peptidolysis of the dipeptide-AMC substrate(s) were measured on either a SpectraMax M5 (Molecular Devices) or a Synergy HTX (Biotek, Wisnooki, VT) microplate reader with λex=360 nm, λem=460 nm in ≥8-sec intervals. Control samples excluded substrate. The measured relative fluorescence units (RFUs) of generated AMC were converted to reaction rates of μM/s by use of a standard curve of known AMC concentrations obtained for both plate readers.

[5] = system: T. b. brucei procyclic forms; test: Growth of axenic cultures of T. b. brucei procyclic forms (PCFs); format: cell-based, Trypanosoma brucei brucei; conditions: Trypanosoma brucei, axenic culture; read-out: EC50 T. b. brucei PCF
human cathepsin L = human cathepsin L (Homo sapiens (Human), UniProt P07711); test: Human cathepsin L inhibition, Z-FR-AMC assay; format: biochemical
Sequence of human cathepsin L (P07711 114-333): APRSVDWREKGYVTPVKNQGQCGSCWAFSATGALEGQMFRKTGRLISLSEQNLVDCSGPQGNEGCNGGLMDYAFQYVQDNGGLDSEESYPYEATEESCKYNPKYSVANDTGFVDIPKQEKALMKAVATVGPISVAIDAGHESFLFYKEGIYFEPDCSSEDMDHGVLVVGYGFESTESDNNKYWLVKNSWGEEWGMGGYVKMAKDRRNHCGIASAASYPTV
Experimental: as §1, §2

cruzain [6] = molecular target: T1, cruzain; test: Kinetic parameters of peptide substrates for cruzain; format: biochemical; conditions: for Km / kcat / kcat/Km: pH 7.5, 25° C., 10% DMSO; for kcat rel: relative to Cbz-Phe-Arg-AMC
Experimental: All enzyme assays were performed at 25° C. Initial rates of the peptidolytic reaction catalyzed by cruzain were measured by monitoring the fluorescence generated by cleavage of the dipeptide-AMC bond. Assays were conducted in 96-well plates (Greiner; flat-bottom, clear black plates) in a total volume of 250 μL, containing either 50 mM MES (pH 7.5), 50 mM TAPSO, 100 mM DEA, 1 mM CHAPS, 1 mM Na2EDTA, 5 mM DTT, and 10% DMSO (v/v) or 50 mM sodium acetate (pH 5.5), 50 mM MES, 100 mM TEA, 1 mM CHAPS, 1 mM Na2EDTA, 5 mM DTT, and 10% DMSO (v/v). Substrates were dissolved in 100% DMSO and were then diluted 10-fold such that when added to reaction mixtures, final DMSO concentration was 10% (v/v). Reactions were initiated with the addition of 1-10 μL of cruzain (final concentrations: 0.1-3.0 nM (preincubation studies)). Fluorescence was measured on either a SpectraMax M5 (Molecular Devices) or a Synergy HTX (BioTek, Winooski, VT) microplate reader (λex=360 nm, λem=460 nm). Initial rates were determined from continuous kinetic time courses and calculated from the earliest time points, typically at less than 10 min.
Initial velocity data for cruzain-catalyzed reactions of fluorogenic peptide substrates were determined by fitting to eq 1 using GraphPad Prism 6.0 or SigmaPlot 12.0. For eq 1, kcat is the turnover number, [E]t is the concentration of active sites of cruzain, and Ka is the Michaelis constant for the substrate A. Cruzain concentrations were determined by spectrophotometric analysis of purified sample solutions as described.^44

[7] = apparent tight-binding inhibition constant, 25° C., read-out: Ki*
[8] = Trypanosoma cruzi, C2C12, C2C12 murine cardiomyoblasts
[9] = obtained >10 minutes following initiation of reaction by addition of enzyme, read-out: Ki* Cruzain

T1 sequence (P25779 123-467 limits assumed): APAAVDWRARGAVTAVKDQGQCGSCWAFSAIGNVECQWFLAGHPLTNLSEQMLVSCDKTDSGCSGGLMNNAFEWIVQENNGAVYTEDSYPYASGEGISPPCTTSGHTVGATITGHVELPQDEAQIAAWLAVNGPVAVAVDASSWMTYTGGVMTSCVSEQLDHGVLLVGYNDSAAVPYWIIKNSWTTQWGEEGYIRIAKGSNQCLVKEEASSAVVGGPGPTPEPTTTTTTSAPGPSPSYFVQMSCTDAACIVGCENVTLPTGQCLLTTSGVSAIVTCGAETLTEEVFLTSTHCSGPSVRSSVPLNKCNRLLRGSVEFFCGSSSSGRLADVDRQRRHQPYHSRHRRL

In the case of `NCCCC[C@@H](/C=C/c1ccccn1)NC(=O)[C@H](Cc1ccccc1)NC(=O)OCc1ccccc1` [Compound 20, (S,E)-5-((S)-2-(((Benzyloxy)carbonyl)amino)-3-phenylpropanamido)-7-(pyridin-2-yl)hept-6-en-1-aminium Chloride], the Ki (cruzain [1]; apparent initial inhibition constant, 25° C., read-out: Ki) is reported as 17.3 ± 0.3 µM, the Ki (cruzain [1]; [7]) is reported as 0.87 µM and the EC50 [2, 8] is reported as 5 to 8 µM.
For `O=C(N[C@@H](Cc1ccccc1)C(=O)N[C@H](/C=C/c1nccs1)Cc1ccccc1)OCc1ccccc1` [Compound 25, Benzyl ((S)-1-Oxo-3-phenyl-1-(((S,E)-1-phenyl-4-(thiazol-2-yl)-but-3-en-2-yl)amino)propan-2-yl)carbamate], the “Rate of Thiolation, k” value [3] was “Negligible” and the Ki (cruzain [1]; [7]) was 1.71 µM.
For `C[n+]1ccsc1/C=C/[C@H](Cc1ccccc1)NC(=O)[C@H](Cc1ccccc1)NC(=O)OCc1ccccc1.[I-]` [Compound 26, 2-((S,E)-3-((S)-2-(((Benzyloxy)carbonyl)amino)-3-phenylpropanamido)-4-phenylbut-1-en-1-yl)-3-methylthiazol-3-ium Iodide], the “Rate of Thiolation, k” value [3] was 0.25 ± 0.083 M⁻¹ s⁻¹ and the Ki (cruzain [1]; [7]) was 0.94 ± 0.06 µM.
Work on `COc1ccccc1C[C@@H](C=O)NC(=O)[C@H](Cc1ccccc1)NC(=O)OCc1ccccc1` [Compound 29] (Cbz-Phe-[Phe(2-OMe)]-aldehyde) yielded a Ki (cruzain [1]; [9]) of 0.022 µM and a Ki (SARS-CoV-2 3CL protease) of over 10 µM.
Molecule `Cc1ccc2c(c1)C[C@H](NC(=O)[C@H](Cc1ccccc1)NC(=O)OCc1ccccc1)C(O)O2` (stereo partly drawn) [Compound 32, Benzyl ((2S)-1-(((3S)-2-hydroxy-6-methylchroman-3-yl)amino)-1-oxo-3-phenylpropan-2-yl)carbamate] has a Ki (cruzain [1]; Ki* Cruzain, obtained >10 minutes following initiation of reaction by addition of enzyme) of 0.1 µM, a Ki (cruzain [1]; [9]) of 0.103 ± 0.005 µM and an EC50 [4] of 0.5 µM. For the same molecule, the Ki (human cathepsin B; pH 5.5, 25° C., read-out: Ki* hCatB) was 6.1 ± 0.9 µM, the EC50 [5] was 7 µM and the Ki (human cathepsin L; pH 5.5, 25° C., read-out: Ki* hCatL) was 0.058 ± 0.002 µM. The EC50 ([2]; C2C12 murine cardiomyoblasts) was 3 to 5.7 µM, the EC50 [2, 8] was 5.7 ± 0.6 µM and the Ki (SARS-CoV-2 3CL protease; pH 7.5) was over 10 µM.
With `Cc1cc(=O)oc2cc(NC(=O)[C@H](CCCN=C(N)N)NC(=O)[C@H](Cc3ccccc3)NC(=O)OCc3ccccc3)ccc12` [Compound S1, Cbz-Phe-Arg-AMC] (Cbz-Phe-Arg-{AMC}) the Km (cruzain [6]) was 0.89 ± 0.09 µM, the kcat (cruzain [6]) was 9.6 ± 0.2 s⁻¹ and the kcat/Km (cruzain [6]) was 1.1e+07 ± 1e+06 M⁻¹ s⁻¹. The Km (cruzain [6]; listed as Cbz-Phe-Arg-AMC) was 0.9 µM, the kcat/Km (cruzain [6]; listed as Cbz-Phe-Arg-AMC) was 1.1e+07 M⁻¹ s⁻¹ and the kcat rel (cruzain [6]) was 1.00. For the same molecule, the Km (human cathepsin B; pH 5.5) was 150 µM and the Km (human cathepsin L; pH 5.5) was 2.9 µM.
For `Cc1cc(=O)oc2cc(NC(=O)[C@H](Cc3ccccc3)NC(=O)[C@H](Cc3ccccc3)NC(=O)N3CCN(C)CC3)ccc12` [Compound S11, NMePip-Phe-Phe-AMC], the Km (cruzain [6]) was 14 ± 4 µM, the kcat (cruzain [6]) was 2.8 ± 0.06 s⁻¹ and the kcat/Km (cruzain [6]) was 200000 ± 40000 M⁻¹ s⁻¹. The kcat rel (cruzain [6]) was 0.29.
